From ChEMBL document CHEMBL4706550, “Design, synthesis and biological activities of piperidine-spirooxadiazole derivatives as α7 nicotinic receptor antagonists” (Eur J Med Chem, 2020)
Calls of active or inactive are those of the source. The rule behind the calls is not given here.

Experiments:
[1] = target: T1, Neuronal acetylcholine receptor subunit alpha-7 (Homo sapiens, UniProt P36544); assay: Antagonist activity at human alpha7 nAChR expressed in Xenopus laevis oocytes assessed as inhibition of Ach-induced current at 30 uM measured at holding potential of -90 mV by two electrode voltage-clamp assay relative to control; format: cell-based; settings: Oocyte
T1 sequence (P36544 whole entry): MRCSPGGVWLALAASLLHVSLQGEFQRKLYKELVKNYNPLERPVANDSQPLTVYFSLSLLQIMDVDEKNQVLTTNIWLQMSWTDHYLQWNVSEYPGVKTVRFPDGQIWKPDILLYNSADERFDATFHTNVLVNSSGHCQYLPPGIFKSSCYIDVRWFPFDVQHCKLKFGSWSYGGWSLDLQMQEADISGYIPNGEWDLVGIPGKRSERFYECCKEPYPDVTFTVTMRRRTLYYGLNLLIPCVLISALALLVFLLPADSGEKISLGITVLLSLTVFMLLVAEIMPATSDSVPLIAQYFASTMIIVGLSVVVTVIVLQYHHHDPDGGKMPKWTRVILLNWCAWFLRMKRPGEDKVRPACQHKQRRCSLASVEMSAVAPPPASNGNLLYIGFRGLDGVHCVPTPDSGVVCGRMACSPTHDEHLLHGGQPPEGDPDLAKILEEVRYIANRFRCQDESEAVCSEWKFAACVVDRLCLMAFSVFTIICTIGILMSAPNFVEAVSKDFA

[2] = target: T1, Neuronal acetylcholine receptor subunit alpha-7; assay: Antagonist activity at human alpha7 nAChR expressed in Xenopus laevis oocytes assessed as inhibition of Ach-induced current at 100 uM measured at holding potential of -90 mV by two electrode voltage-clamp assay relative to control; format: cell-based; settings: Oocyte
[3] = target: T1, Neuronal acetylcholine receptor subunit alpha-7; assay: Antagonist activity at human alpha7 nAChR expressed in Xenopus laevis oocytes assessed as inhibition of Ach-induced current measured at holding potential of -90 mV by two electrode voltage-clamp assay; format: cell-based, Oocyte
[4] = target: T2, Neuronal acetylcholine receptor; alpha3/beta4 (Rattus norvegicus) (UniProt P04757+P12392); assay: Antagonist activity at rat alpha3beta4 nAChR expressed in Xenopus laevis oocytes assessed as effect on nAChR current measured at holding potential of -90 mV by two electrode voltage-clamp assay; format: cell-based; settings: Oocyte, dose 10.0 µM
[5] = target: T3, Neuronal acetylcholine receptor; alpha4/beta2 (Rattus norvegicus) (UniProt P09483+P12390); assay: Antagonist activity at rat alpha4beta2 nAChR expressed in Xenopus laevis oocytes assessed as inhibition of Ach-induced current at 10 uM measured at holding potential of -90 mV by two electrode voltage-clamp assay relative to control; format: cell-based; settings: Oocyte
[6] = Selectivity index, ratio of IC50 for rat alpha4beta2 nAChR expressed in Xenopus laevis oocytes to IC50 for human alpha7 nAChR expressed in Xenopus laevis oocytes; format: cell-based
[7] = target: Neuronal acetylcholine receptor; alpha4/beta2 (Rattus norvegicus, UniProt P09483+P12390); assay: Antagonist activity at rat alpha4beta2 nAChR expressed in Xenopus laevis oocytes assessed as inhibition of Ach-induced current measured at holding potential of -90 mV by two electrode voltage-clamp assay; format: cell-based, Oocyte
Neuronal acetylcholine receptor; alpha4/beta2, sequence (P09483 whole entry): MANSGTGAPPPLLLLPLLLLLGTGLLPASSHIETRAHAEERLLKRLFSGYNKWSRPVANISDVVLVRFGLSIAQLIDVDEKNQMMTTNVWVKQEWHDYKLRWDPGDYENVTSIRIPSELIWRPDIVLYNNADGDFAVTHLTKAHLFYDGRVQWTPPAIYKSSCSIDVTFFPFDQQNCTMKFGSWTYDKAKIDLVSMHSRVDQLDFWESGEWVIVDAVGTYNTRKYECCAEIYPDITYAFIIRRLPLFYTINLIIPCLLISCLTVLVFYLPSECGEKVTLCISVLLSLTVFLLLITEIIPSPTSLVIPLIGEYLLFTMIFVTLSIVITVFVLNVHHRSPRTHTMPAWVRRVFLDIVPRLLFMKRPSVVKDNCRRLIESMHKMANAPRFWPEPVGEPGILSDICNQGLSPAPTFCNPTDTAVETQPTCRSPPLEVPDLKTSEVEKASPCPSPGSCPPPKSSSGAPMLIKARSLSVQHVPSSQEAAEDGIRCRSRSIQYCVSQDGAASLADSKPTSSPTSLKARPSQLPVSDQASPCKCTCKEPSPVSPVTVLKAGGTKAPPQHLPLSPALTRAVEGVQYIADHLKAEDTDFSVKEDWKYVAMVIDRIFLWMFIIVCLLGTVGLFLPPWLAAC
Neuronal acetylcholine receptor; alpha4/beta2, sequence (P12390 whole entry): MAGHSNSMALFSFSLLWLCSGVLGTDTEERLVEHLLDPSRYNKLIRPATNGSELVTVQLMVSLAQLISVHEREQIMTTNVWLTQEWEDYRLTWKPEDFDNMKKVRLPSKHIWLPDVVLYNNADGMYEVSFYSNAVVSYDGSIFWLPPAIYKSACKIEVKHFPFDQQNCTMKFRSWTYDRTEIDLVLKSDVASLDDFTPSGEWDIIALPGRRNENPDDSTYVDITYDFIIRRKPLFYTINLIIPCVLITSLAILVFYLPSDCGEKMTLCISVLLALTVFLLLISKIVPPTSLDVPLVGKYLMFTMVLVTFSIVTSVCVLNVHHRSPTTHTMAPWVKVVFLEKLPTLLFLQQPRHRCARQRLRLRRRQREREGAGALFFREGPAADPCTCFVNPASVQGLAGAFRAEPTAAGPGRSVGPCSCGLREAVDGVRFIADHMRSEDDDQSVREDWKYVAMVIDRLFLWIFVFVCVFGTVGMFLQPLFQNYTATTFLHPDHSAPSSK

[8] = target: T3, Neuronal acetylcholine receptor; alpha4/beta2 (Rattus norvegicus); assay: Antagonist activity at rat alpha4beta2 nAChR expressed in Xenopus laevis oocytes assessed as effect on nAChR current at 10 uM measured at holding potential of -90 mV by two electrode voltage-clamp assay; format: cell-based; settings: Oocyte
[9] = target: T2, Neuronal acetylcholine receptor; alpha3/beta4 (Rattus norvegicus); assay: Antagonist activity at rat alpha3beta4 nAChR expressed in Xenopus laevis oocytes assessed as inhibition of Ach-induced current at 10 uM measured at holding potential of -90 mV by two electrode voltage-clamp assay relative to control; format: cell-based; settings: Oocyte

| Structure (SMILES) | inhibition [1] | inhibition ([2]; filed as antagonist) [%] | inhibition ([1]; filed as antagonist) [%] | also measured |
| --- | --- | --- | --- | --- |
| c1ccc(CN2CCC3(CC2)NC(c2nccs2)=NO3)nc1 | 39.3% | 80 |  |  |
| CN(C)c1cccc(-c2ccc(C3=NOC4(CCN(Cc5ccccc5)CC4)N3)cc2)c1 | 39.5% | 81.1 |  |  |
| c1ccc(CN2CCC3(CC2)NC(c2cc4ccccc4cn2)=NO3)cc1 |  | 91.1 | 76.6 |  |
| c1ccc2cc(C3=NOC4(CCN(Cc5ccncc5)CC4)N3)ncc2c1 | inactive | 58.2 |  |  |
| COc1cccc(-c2ccc(C3=NOC4(CCN(Cc5ccccc5)CC4)N3)cn2)c1 | inactive | 58.2 |  |  |
| CN1CCC2(CC1)NC(c1ccc(Br)nc1)=NO2 |  | 83.4 | 44.1 |  |
| FC(F)(F)c1ccc(-c2ccc(C3=NOC4(CCN(Cc5ccccc5)CC4)N3)cc2)cc1 | inactive |  |  | inhibition [2]: 36.5% |
| CN1CCC2(CC1)NC(c1nccs1)=NO2 |  | 87.4 | 69.7 |  |
| c1ccc(CN2CCC3(CC2)NC(c2nccs2)=NO3)cc1 |  | 94.5 | 65.1 |  |
| c1ccc(CN2CCC3(CC2)NC(C2CC2)=NO3)cc1 |  | 83.9 | 52.2 |  |
| c1ccc(CN2CCC3(CC2)NC(c2cc4ccccc4cn2)=NO3)nc1 | 37.9% | 80 |  |  |
| FC(F)(F)c1cccc(-c2ccc(C3=NOC4(CCN(Cc5ccccc5)CC4)N3)cc2)c1 | inactive | 67 |  |  |
| CN1CCC2(CC1)NC(c1ccccc1)=NO2 |  | 96.7 | 90.4 | IC50 [3]: 4.4 µM |
| COc1ccc(C2=NOC3(CCN(Cc4ccccc4)CC3)N2)c(OC)c1 | inactive | 79.1 |  |  |
| CC(C)c1cccc(-c2ccc(C3=NOC4(CCN(Cc5ccccc5)CC4)N3)cc2)c1 | inactive |  |  | inhibition [2]: 26.2% |
| COc1cc(OC)cc(-c2ccc(C3=NOC4(CCN(Cc5ccccc5)CC4)N3)cc2)c1 | inactive | 73 |  |  |
| c1ccc(CN2CCC3(CC2)NC(c2n[nH]c4ccccc24)=NO3)cc1 | inactive | 69.8 |  |  |
| c1cc(CN2CCC3(CC2)NC(c2nccs2)=NO3)ccn1 | inactive |  |  | inhibition [2]: 18.8% |
| c1ccc(CN2CCC3(CC2)NC(c2ccccn2)=NO3)cc1 | inactive | 68.7 |  |  |
| Fc1ccc(CN2CCC3(CC2)NC(C2CC2)=NO3)cc1 |  | 83.9 | 52.8 |  |
| CN1CCC2(CC1)NC(c1ccc(Br)cc1)=NO2 |  | 97.4 | 91.8 | Activity [4]: inactive; inhibition [5]: 24%; Ratio IC50 [6]: 6; IC50 [3]: 5.4 µM; IC50 [7]: 32 µM; Activity [8]: inactive; inhibition [9]: 20% |
| Nc1cccc(-c2ccc(C3=NOC4(CCN(Cc5ccccc5)CC4)N3)cn2)c1 |  | 87.2 | 61.8 |  |

Now from value to compound, other results behind:

| inhibition [1] | inhibition ([2]; filed as antagonist) [%] | inhibition ([1]; filed as antagonist) [%] | Structure (SMILES) | also measured |
| --- | --- | --- | --- | --- |
| inactive | 70.2 |  | c1ccc(C2=NOC3(CCN(Cc4ccccn4)CC3)N2)cc1 |  |
| inactive | 73.5 |  | CC(C)(C)OC(=O)N1CCC2(CC1)NC(c1ccccc1)=NO2 |  |
|  | 89.9 | 54.7 | COc1cc(-c2ccc(C3=NOC4(CCN(Cc5ccccc5)CC4)N3)cc2)ccn1 |  |
|  | 83.1 | 65.9 | Fc1cccc(C2=NOC3(CCN(Cc4ccccc4)CC3)N2)c1 |  |
|  | 98.2 | 70.4 | c1ccc(CN2CCC3(CC2)NC(c2ccccc2)=NO3)cc1 | IC50 [3]: 13.7 µM |
| inactive | 79.6 |  | COc1ccc(C2=NOC3(CCN(Cc4ccccc4)CC3)N2)cc1 |  |
| inactive |  |  | Cc1ccc(-c2ccc(C3=NOC4(CCN(Cc5ccccc5)CC4)N3)cc2)cc1 | inhibition [2]: 34.9% |
|  | 90.7 | 77.4 | Clc1ccc(C2=NOC3(CCN(Cc4ccccc4)CC3)N2)cc1 |  |
|  | 80.4 | 59 | Oc1cccc(-c2ccc(C3=NOC4(CCN(Cc5ccccc5)CC4)N3)cc2)c1 |  |
|  | 93.4 | 86.1 | COc1cc(-c2ccc(C3=NOC4(CCN(C)CC4)N3)cc2)ccn1 | IC50 [3]: 3.3 µM |
| inactive | 72 |  | Cc1ccccc1-c1ccc(C2=NOC3(CCN(Cc4ccccc4)CC3)N2)cc1 |  |
| inactive | 71.4 |  | c1ccc(CN2CCC3(CC2)NC(c2ccc(-c4ccccc4)cc2)=NO3)cc1 |  |
| inactive | 52.8 |  | Clc1ccc(-c2ccc(C3=NOC4(CCN(Cc5ccccc5)CC4)N3)cc2)cc1 |  |
| inactive | 75.2 |  | c1ccc(CN2CCC3(CC2)NC(c2ccc(-c4ccncc4)cc2)=NO3)cc1 |  |
| inactive | 58.1 |  | CCOC(=O)N1CCC2(CC1)NC(c1ccc(Br)cc1)=NO2 |  |
| inactive | 42.4 |  | Fc1ccc(-c2ccc(C3=NOC4(CCN(Cc5ccccc5)CC4)N3)cc2)cc1 |  |
| inactive | 75.4 |  | Cc1cccc(C2=NOC3(CCN(Cc4ccccc4)CC3)N2)c1 |  |
| inactive | 78.2 |  | CN1CCC2(CC1)NC(c1ccc(-c3cccc(N)c3)cc1)=NO2 |  |
| inactive | 71.1 |  | c1ccc(CN2CCC3(CC2)NC(c2ccc(-c4cccs4)cc2)=NO3)cc1 |  |
| inactive | 74.9 |  | c1ccc(CN2CCC3(CC2)NC(c2cccs2)=NO3)cc1 |  |
|  | 90.3 | 63.7 | Brc1ccc(C2=NOC3(CCN(Cc4ccccc4)CC3)N2)cn1 |  |
|  | 95.6 | 76.9 | COc1cccc(-c2ccc(C3=NOC4(CCN(Cc5ccccc5)CC4)N3)cc2)c1 |  |
| inactive | 75.1 |  | CCOC(=O)N1CCC2(CC1)NC(c1ccccc1)=NO2 |  |
| inactive | 78.3 |  | Fc1ccc(C2=NOC3(CCN(Cc4ccccc4)CC3)N2)cc1 |  |
|  | 81.1 | 65 | c1ccc(CN2CCC3(CC2)NC(c2ccc(-c4cccnc4)cc2)=NO3)cc1 |  |
|  | 91.5 | 90.8 | Brc1ccc(C2=NOC3(CCN(Cc4ccccc4)CC3)N2)cc1 | IC50 [3]: 6 µM |
|  | 93.2 | 81.3 | COc1cccc(-c2ccc(C3=NOC4(CCN(C)CC4)N3)cc2)c1 |  |
|  | 93.5 | 60.1 | Nc1cccc(-c2ccc(C3=NOC4(CCN(Cc5ccccc5)CC4)N3)cc2)c1 |  |
| 30% | 80.1 |  | Cc1cccc(-c2ccc(C3=NOC4(CCN(Cc5ccccc5)CC4)N3)cc2)c1 |  |
| inactive | 40.5 |  | COc1ccc(-c2ccc(C3=NOC4(CCN(Cc5ccccc5)CC4)N3)cc2)cc1 |  |
